≈ marks a conversion by molar mass, not a printed value. Read-outs that look alike come from different tables or passages of the source. *1 amine or outer side, *2 acyl side, *3 side chain or, on linkers, in order; H or OH if unused. Where a SMILES comes first, the peptide text is derived from it. Bridges are numbered along the chain shown (N, C = ends). [ ]: non-standard residue; d: D form. The star is where a group is joined. ξ: configuration not given here. Phe(3,5-F2) = N[C@@H](Cc1cc(F)cc(F)c1)C(=O)O; Morpholine(3S-CO) = O=C(O)[C@@H]1COCCN1; Pro(4S-Me) = C[C@@H]1CN[C@H](C(=O)O)C1; NH(4-Cl-2-F-phenyl) = Fc1cc(Cl)ccc1N*; Pro(4R-Me) = C[C@H]1CN[C@H](C(=O)O)C1; NMeaThr = CN[C@H](C(=O)O)[C@H](C)O; Hyp = O=C(O)[C@@H]1C[C@@H](O)CN1; NH(4-Et-phenyl) = CCc1ccc(N*)cc1; NH(4-Me-phenyl) = Cc1ccc(N*)cc1; ξNMeThr = CNC(C(=O)O)[C@@H](C)O; aThr = C[C@H](O)[C@H](N)C(=O)O; NMeA = CN[C@@H](C)C(=O)O; CO = O=C([*:1])[*:2]
How the values were obtained:
Sa-ClpP = target: T1, Sa-ClpP (Staphylococcus aureus, UniProt Q2G036); assay: ADEP displacement fluorescence polarization assay (FP probe ADEP 2591); type: binding
T1 construct: made in house; host or cells: E. coli BL21(DE3)
T1 sequence (Q2G036 1-195): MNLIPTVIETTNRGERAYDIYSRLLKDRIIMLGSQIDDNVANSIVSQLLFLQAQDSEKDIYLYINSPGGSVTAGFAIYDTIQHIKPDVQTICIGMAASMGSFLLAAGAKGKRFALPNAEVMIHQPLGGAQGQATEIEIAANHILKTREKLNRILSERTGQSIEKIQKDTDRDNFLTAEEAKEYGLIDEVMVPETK
Summary of the method: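 Master mix of 15 μM S. aureus ClpP with 50 nM TAMRA-labelled ADEP 2591 probe in Tris-HCl pH 8.0, 2% DMSO, was pre-equilibrated 1 h, then incubated with compound 120 min at room temperature. Polarization (ex 530, em 579 nm) was normalized to 200 μM ADEP 2378 and DMSO controls; four-parameter fits, triplicate.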

[1] = tested on: Enterococcus faecalis, ATCC 33186; assay: Minimal inhibitory concentration assay (microbroth dilution); type: cell-based
Summary of the method: (§1)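 Broth microdilution per CLSI M7-A7: two-fold serial dilutions of compound in broth (top final concentration 200 μM) were inoculated with ~10^5 cfu/mL bacteria and incubated aerobically overnight at 37 °C. MIC was read visually as the lowest concentration preventing growth.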

[2] = tested on: Streptococcus pneumoniae, R6; assay: Minimal inhibitory concentration assay; type: cell-based; settings: read-out: Minimal Inhibitory Concentrations S. pneumoniae R6
Summary of the method: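 Microbroth dilution with two-fold serial compound dilutions in broth, incubated aerobically overnight at 37° C. MIC taken as the lowest concentration preventing bacterial growth.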

[3] = tested on: Staphylococcus aureus, USA 300; assay: Minimal inhibitory concentration assay; type: cell-based; settings: USA300, read-out: Minimal Inhibitory Concentrations S. aureus USA 300
Summary of the method: as §1

[4] = tested on: Staphylococcus aureus, USA 300 wherein ClpP is inactivated; assay: Minimal inhibitory concentration assay; type: cell-based
Summary of the method: as §1

[5] = Enterococcus faecalis, ATCC33186; read-out: Minimal Inhibitory Concentrations E. faecalis ATCC 33186
[6] = displacement of FP probe ADEP 2591 from Sa-ClpP, read-out: ADEP Displacement IC50
[7] = Enterococcus faecalis, ATCC33186, read-out: Minimal Inhibitory Concentrations E. faecalis ATCC 33186

## C[C@@H]1C[C@H]2C(=O)O[C@@H](C)[C@H](NC(=O)[C@H](Cc3cc(F)cc(F)c3)NC(=O)Nc3ccc(Cl)cc3F)C(=O)N3CCC[C@H]3C(=O)N(C)C([C@@H](C)O)C(=O)N[C@@H](C)C(=O)N2C1 (stereo partly drawn) [Compound 313, (S)-2-(3-(4-chloro-2-fluorophenyl)ureido)-3-(3,5-difluorophenyl)-N-((2R,6S,9R,11aS,17S,18S,20aS)-9-((R)-1-hydroxyethyl)-2,6,10,18-tetramethyl-5,8,11,16,20-pentaoxohexadecahydro-1H,5H,16H-dipyrrolo[2,1-c:2′,1′-l][1]oxa[4,7,10,13]tetraazacyclohexadecin-17-yl)propanamide] ({NH(4-Cl-2-F-phenyl)-CO}-[Phe(3,5-F2)][aThr]P[ξNMeThr]A[Pro(4R-Me)]; ester 2-C)
Sa-ClpP
  IC50: 7.3 ± 0.5 µM
[1]; [5]
  MIC: 0.039 µM (≈ 0.0332 µg/mL)
[2]
  MIC: < 0.02 µM
[3]
  MIC: < 0.02 µM
[4]
  Minimal Inhibitory Concentrations S. aureus USA 300 ΔClpP: >20 µM

## C[C@@H]1C[C@H]2C(=O)O[C@@H](C)[C@H](NC(=O)[C@H](Cc3cc(F)cc(F)c3)NC(=O)Nc3ccc(Cl)cc3F)C(=O)N3CCC[C@H]3C(=O)N3CCOC[C@H]3C(=O)N[C@@H](C)C(=O)N2C1 [Compound 314, (S)-2-(3-(4-chloro-2-fluorophenyl)ureido)-3-(3,5-difluorophenyl)-N-((6aS,12S,13S,15aS,17R,21S,23aS)-13,17,21-trimethyl-6,11,15,20,23-pentaoxooctadecahydro-6H,11H,15H-[1,4]oxazino[3,4-i]dipyrrolo[2,1-c:2′,1′-l][1]oxa[4,7,10,13]tetraazacyclo-hexadecin-12-yl)propanamide] ({NH(4-Cl-2-F-phenyl)-CO}-[Phe(3,5-F2)][aThr]P[Morpholine(3S-CO)]A[Pro(4R-Me)]; ester 2-C)
Sa-ClpP
  IC50: 7.2 ± 0.3 µM
[1]; [5]
  MIC: 0.039 µM (≈ 0.0331 µg/mL)
[2]
  MIC: < 0.02 µM
[3]
  MIC: < 0.02 µM
[4]
  Minimal Inhibitory Concentrations S. aureus USA 300 ΔClpP: >20 µM

## Cc1ccc(NC(=O)N[C@@H](Cc2cc(F)cc(F)c2)C(=O)N[C@@H]2C(=O)N3CCC[C@H]3C(=O)N(C)[C@@H]([C@H](C)O)C(=O)N[C@@H](C)C(=O)N3C[C@@H](C)C[C@H]3C(=O)O[C@H]2C)cc1 [Compound 202, (S)-3-(3,5-difluorophenyl)-N-((2S,6S,9S,11aS,17S,18S,20aS)-9-((S)-1-hydroxyethyl)-2,6,10,18-tetramethyl-5,8,11,16,20-pentaoxohexadecahydro-1H,5H,16H-dipyrrolo[2,1-c:2′,1′-L][1]oxa[4,7,10,13]tetraazacyclohexadecin-17-yl)-2-(3-(p-tolyl)ureido)propanamide] ({NH(4-Me-phenyl)-CO}-[Phe(3,5-F2)][aThr]P[NMeaThr]A[Pro(4S-Me)]; ester 2-C)
Sa-ClpP; [6]
  IC50: 6.6 ± 0.4 µM
[1]; [7]
  MIC: 0.049 µM (≈ 0.0398 µg/mL)
[2]
  MIC: 0.049 µM (≈ 0.0398 µg/mL)
[3]
  MIC: 0.195 µM (≈ 0.158 µg/mL)
[4]
  Minimal Inhibitory Concentrations S. aureus USA 300 ΔClpP: 200 µM

## Cc1ccc(NC(=O)N[C@@H](Cc2cc(F)cc(F)c2)C(=O)N[C@@H]2C(=O)N3C[C@H](O)C[C@H]3C(=O)N(C)[C@@H](C)C(=O)N[C@@H](C)C(=O)N3C[C@@H](C)C[C@H]3C(=O)O[C@H]2C)cc1 [Compound 214, (S)-3-(3,5-difluorophenyl)-N-((2S,6S,9S,11aS,13R,17S,18S,20aS)-13-hydroxy-2,6,9,10,18-pentamethyl-5,8,11,16,20-pentaoxohexadecahydro-1H,5H,16H-dipyrrolo[2,1-c:2′,1′-l][1]oxa[4,7,10,13]tetraazacyclohexadecin-17-yl)-2-(3-(p-tolyl)ureido)propanamide] ({NH(4-Me-phenyl)-CO}-[Phe(3,5-F2)][aThr][Hyp][NMeA]A[Pro(4S-Me)]; ester 2-C)
Sa-ClpP; [6]
  IC50: 5.8 ± 0.3 µM
[1]; [7]
  MIC: 0.195 µM (≈ 0.156 µg/mL)
[2]
  MIC: 0.195 µM (≈ 0.156 µg/mL)
[3]
  MIC: 1.56 µM (≈ 1.24 µg/mL)
[4]
  Minimal Inhibitory Concentrations S. aureus USA 300 ΔClpP: >200 µM

## CCc1ccc(NC(=O)N[C@@H](Cc2cc(F)cc(F)c2)C(=O)N[C@@H]2C(=O)N3CCC[C@H]3C(=O)N(C)[C@@H]([C@H](C)O)C(=O)N[C@@H](C)C(=O)N3C[C@@H](C)C[C@H]3C(=O)O[C@H]2C)cc1 [Compound 204, (S)-3-(3,5-difluorophenyl)-2-(3-(4-ethylphenyl)ureido)-N-((2S,6S,9S,11aS,17S,18S,20aS)-9-((S)-1-hydroxyethyl)-2,6,10,18-tetramethyl-5,8,11,16,20-pentaoxohexadecahydro-1H,5H,16H-dipyrrolo[2,1-c:2′,1′-l][1]oxa[4,7,10,13]tetraazacyclohexadecin-17-yl)propanamide] ({NH(4-Et-phenyl)-CO}-[Phe(3,5-F2)][aThr]P[NMeaThr]A[Pro(4S-Me)]; ester 2-C)
Sa-ClpP; [6]
  IC50: 7 ± 0.4 µM
[1]; [5]
  MIC: 0.195 µM (≈ 0.161 µg/mL)
[2]
  MIC: 0.024 µM (≈ 0.0198 µg/mL)
[3]
  MIC: 0.098 µM (≈ 0.0809 µg/mL)
[4]
  Minimal Inhibitory Concentrations S. aureus USA 300 ΔClpP: 100 µM

Source: US10457707B2, “Substituted urea depsipeptide analogs as activators of the CLPP endopeptidase” (priority 2015, dated 2019)
